# Experimental data published in paper PMC7495481, “Sequence specificity analysis of the SETD2 protein lysine methyltransferase and discovery of a SETD2 super-substrate” (Communications Biology, 2020).
# Tests used:
# Format in all cases: biochemical
# SUV39H2 = assay: Methylation of ssK36 by SUV39H2; details: peer review file Figure R1
# NSD1 = assay: Peptide methylation by NSD1; details: peer review file
# From the text: We, therefore, repeated the peptide array used for the development of the SETD2 super-substrate, which is shown in Figure 2A of our manuscript for NSD1 and NSD2. […]
# that this mutation specifically increases the activity of these two enzymes. In contrast, with […]
# combined with H39N/K. Importantly, in case of SETD2 H39N only has an effect in the context of the other mutations in ssK36. We conclude that the ssK36 substrate is specifically optimized for SETD2 as expected given the workflow of our experiments. The finding that H39N increases the activity of NSD1 and NSD2 is interesting and deserves additional work. It […]
# conducted with NSD1 and NSD2. The SETD2 panel is taken from the manuscript for comparison. The table indicates the peptide compositions. Note, the gradual increase of methylation with increasing number of mutations in the case of SETD2. In case of NSD1 and NSD2, increased methylation is solely due to the H39N mutation , which has a weaker […]
# SETD2 [1] = biological target: T1, SETD2 (Homo sapiens, UniProt Q9BYW2); assay: Peptide SPOT array methylation of H3K36 (29–43) variants, super-substrate design (Fig. 2a)
# T1 construct: SETD2 catalytic SET domain (amino acids 1347–1711, UniProt No: Q9BYW2); made in house; host or cells: E. coli
# T1 sequence (Q9BYW2 1347-1711): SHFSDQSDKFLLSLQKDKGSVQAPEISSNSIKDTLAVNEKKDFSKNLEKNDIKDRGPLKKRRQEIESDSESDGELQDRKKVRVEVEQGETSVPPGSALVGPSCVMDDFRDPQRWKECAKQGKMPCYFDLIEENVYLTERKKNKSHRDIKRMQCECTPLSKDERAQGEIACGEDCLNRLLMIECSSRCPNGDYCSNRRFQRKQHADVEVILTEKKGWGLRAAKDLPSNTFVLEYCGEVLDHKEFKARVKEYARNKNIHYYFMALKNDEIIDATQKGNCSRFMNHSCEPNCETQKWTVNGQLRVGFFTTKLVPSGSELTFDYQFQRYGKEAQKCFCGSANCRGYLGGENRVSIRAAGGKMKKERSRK
# From the text: Based on these observations, we aimed to explore, if better substrates than H3K36 can be designed for SETD2. We synthesized peptide SPOT arrays including H3K36 (29–43) as a positive control and the H3K36A mutant as a negative control, in which up to 5 combined mutations were systematically introduced that converted the original H3K36 residues into residues that are more favored (Fig. 2a and Supplementary Table 1). This peptide array was methylated by SETD2 as described above and the methylation signal was captured by autoradiography.
# Fig. 2 Design of an optimized SETD2 peptide substrate and analysis of its methylation. a Variants of the H3K36 (29–43) peptide containing up to five mutations (Supplementary Table 1) were synthesized on a cellulose membrane and methylated by SETD2. The signal of the transferred radioactive methyl groups was detected by autoradiography. Spots A1 and B15 contain the H3K36 sequence, A2 and B16 the H3K36A peptide. Two films with different exposure times are shown to visualize weaker methylated spots as well. b Comparison of the methylation of purified super-substrate (ssK36) and the H3K36 peptides. […] Methylation reactions were conducted using 20 µM peptide and 6 µM enzyme. The lower panels display autoradiography films after different exposure times allowing to compare the methylation levels of the different samples. For comparison, different dilutions of the methylated ssK36 were loaded as indicated. c Time course of ssK36 peptide methylation determined under single turnover conditions using 5 µM substrate and 6 µM enzyme. […] The gels with the radioactive ssK36 (5 µl loaded per well) and H3K36 peptides (20 µl loaded per well) were exposed together to the same x-ray film. […] An enlargement of the H3K36 data with adjusted y-axis scale is shown in Supplementary Fig. 3d.
# Peptide arrays containing fifteen amino acid long peptides were synthesized using the SPOT synthesis method[48] with an Autospot peptide array synthesizer (Intavis AG, Köln, Germany). After synthesis, the obtained membranes were pre-incubated in methylation buffer (20 mM Tris/HCl pH 9, 0.01% Triton X-100, 10 mM DTT, 1.5 mM MgCl2) for 5 min on a shaker. Thereafter, the membranes were incubated in methylation buffer supplemented with 0.76 µM radioactively labeled AdoMet (PerkinElmer) and 3–6 µM SETD2 enzyme for 60 min on a shaker. After methylation, the membranes were washed 5 times for 5 min in wash buffer (100 mM NH4HCO3, 1% SDS) and incubated in amplify NAMP100V (GE Healthcare) for 5 min. This was followed by the exposure of the membranes to a hyperfilm^TM high performance autoradiography (GE Healthcare) film at −80 °C in the dark. The films were developed with an Optimax Typ TR machine after different exposue times. For quantification the signal intensities were measured with the Phoretix^TM software and analyzed with Microsoft Excel.
# SETD2 [2] = biological target: T1, SETD2; assay: Steady-state peptide methylation kinetics (Michaelis-Menten); details: 20–320 µM peptide; Michaelis-Menten fit; two independent experiments
# Experimental: To further characterize the methylation kinetics of the super-substrate peptide, steady-state methylation experiments were performed using the super-substrate peptide in different concentrations ranging from 20 to 320 µM (Supplementary Fig. 3a). […] To further study the difference in peptide binding, inhibition of SETD2 by ssK36M and H3K36M inhibitor peptides was investigated (Supplementary Fig. 3b and c).
# The H3K36 (27–43) and the H3K36M (27–43) peptides were purchased from Intavis AG (Köln, Germany) and the ssK36 peptide (29–43) and the ssK36M peptide (29–43) were from Innovative Peptide Solutions (Berlin, Germany). If not indicated otherwise, peptide methylation reactions were performed using 20 µM peptide and 6 µM SETD2 in 20 µl methylation buffer supplemented with 0.76 µM radioactive labeled AdoMet (PerkinElmer) for 3 h at 25 °C. The reactions were halted by the addition of Tricine-SDS-PAGE loading buffer and incubation for 5 min at 95 °C. […] The signals of the transferred radioactive labeled methyl groups were detected by autoradiography using a hyperfilm^TM high performance autoradiography film (GE Healthcare) at −80 °C in the dark. […]
# Multiple turnover kinetics were determined using variable peptide concentrations (20–320 µM). […]
sequence,measurement,setting,value
"APRFGGVKRPNRYRP [ssK36, super-substrate peptide with four amino acid exchanges (A31R, T32F, K37R, H39N)]",methylation by SUV39H2,SUV39H2,Lack of methylation
same,methylation by NSD1,NSD1,better substrate than H3K36
same,peptide array methylation of H3K36 variants (in words),"SETD2 [1]; SPOT array, 0.76 µM radioactive AdoMet, 3–6 µM SETD2, 60 min, pH 9, autoradiography",one of the most strongly methylated peptides
same,fold stronger methylation of ssK36 than H3K36,"SETD2 [1]; densitometric analysis of 5 pairs of H3K36 and ssK36 spots on independent arrays, ± SD",70 ± 10 fold
same,Km,SETD2 [2],45 µM
